Measured values published in US12077503B2, “Substituted cyclic amides and their use as herbicides” (FMC CORPORATION, priority 2015, dated 2024).

Experiments:
Assay type in all cases: in vivo
[1] = system: ivy-leaved morning glory (Ipomoea hederacea); experiment: Test G Pre-Emergence Protocol; conditions: Ipomoea, pre-emergence, 312 h, evaluated after 13 days; for pest or weed control at 15.625 g/ha: 15.625 g ai/ha, read-out: Morning-glory, Ivy-leaved damage rating (100=total damage to plant; 0=no damage to plant); for pest or weed control at 62.5 g/ha: 62.5 g ai/ha, 100=total damage to plant, 0=no damage to plant, read-out: plant damage rating, Morningglory, Ivy-leaved; for pest or weed control at 250 g/ha: 250 g ai/ha, read-out: Morningglory, Ivy-leaved damage rating (100=total damage to plant; 0=no damage to plant)
Outline: (§1)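 Glasshouse pre-emergence test: soil-sown seeds, sprayed after 1 d at 15.625, 62.5 or 250 g/ha. Conditions 24/16° C day/night, 14 h light, 65% humidity, watering twice daily. Rating 13 d post-spray (100 = total damage).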

[2] = system: redroot pigweed (Amaranthus retroflexus); experiment: Test G Pre-Emergence Protocol; conditions: Amaranthus retroflexus, pre-emergence, 312 h, evaluated after 13 days; for pest or weed control at 62.5 g/ha: 62.5 g ai/ha, 100=total damage to plant, 0=no damage to plant, read-out: plant damage rating, Pigweed, Redroot; for pest or weed control at 250 g/ha: 250 g ai/ha
Outline: as §1

corn (Zea mays) [3] = experiment: Test G Pre-Emergence Protocol; conditions: Zea mays, pre-emergence, 312 h, evaluated after 13 days; for plant injury at 15.625 g/ha: 15.625 g ai/ha; for plant injury at 15.625 g/ha / plant injury at 250 g/ha: read-out: Corn damage rating (100=total damage to plant; 0=no damage to plant); for plant injury at 62.5 g/ha: 62.5 g ai/ha, 100=total damage to plant, 0=no damage to plant, read-out: plant damage rating, Corn; for plant injury at 250 g/ha: 250 g ai/ha
Outline: as §1

[4] = system: velvetleaf (Abutilon theophrasti); experiment: Test G Pre-Emergence Protocol; conditions: Abutilon theophrasti, pre-emergence, 312 h, evaluated after 13 days; for pest or weed control at 15.625 g/ha: 15.625 g ai/ha; for pest or weed control at 15.625 g/ha / pest or weed control at 250 g/ha: read-out: Velvetleaf damage rating (100=total damage to plant; 0=no damage to plant); for pest or weed control at 62.5 g/ha: 62.5 g ai/ha, 100=total damage to plant, 0=no damage to plant, read-out: plant damage rating, Velvetleaf; for pest or weed control at 250 g/ha: 250 g ai/ha
Outline: as §1

[5] = system: barnyardgrass (Echinochloa crus-galli); experiment: Test G Pre-Emergence Protocol; conditions: Echinochloa crus-galli, pre-emergence, 312 h, evaluated after 13 days; for pest or weed control at 15.625 g/ha: 15.625 g ai/ha, read-out: Barnyard grass damage rating (100=total damage to plant; 0=no damage to plant); for pest or weed control at 62.5 g/ha: 62.5 g ai/ha, 100=total damage to plant, 0=no damage to plant, read-out: plant damage rating, Barnyardgrass; for pest or weed control at 250 g/ha: 250 g ai/ha, read-out: Barnyardgrass damage rating (100=total damage to plant; 0=no damage to plant)
Outline: as §1

[6] = system: giant foxtail (Setaria faberi); experiment: Test G Pre-Emergence Protocol; conditions: Setaria faberi, pre-emergence, 312 h, evaluated after 13 days; for pest or weed control at 15.625 g/ha: 15.625 g ai/ha; for pest or weed control at 15.625 g/ha / pest or weed control at 250 g/ha: read-out: Foxtail, Giant damage rating (100=total damage to plant; 0=no damage to plant); for pest or weed control at 62.5 g/ha: 62.5 g ai/ha, 100=total damage to plant, 0=no damage to plant, read-out: plant damage rating, Foxtail, Giant; for pest or weed control at 250 g/ha: 250 g ai/ha
Outline: as §1

[7] = system: ivy-leaved morning glory (Ipomoea hederacea); experiment: Test G Post-Emergence Protocol; conditions: Ipomoea, post-emergence, 312 h; for pest or weed control at 15.625 g/ha: 15.625 g ai/ha, evaluated after 13 days (100=total damage to plant; 0=no damage to plant), read-out: Morningglory, Ivy-leaved damage rating; for pest or weed control at 62.5 g/ha: 62.5 g ai/ha, read-out: Morningglory, Ivy-leaved damage rating (100=total damage to plant; 0=no damage to plant); for pest or weed control at 62.5 g/ha / pest or weed control at 250 g/ha: evaluated after 13 days; for pest or weed control at 250 g/ha: 250 g ai/ha, read-out: damage to plant, Morningglory, Ivy-leaved (100=total damage to plant; 0=no damage to plant)
Outline: (§2)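 Sow in soil; grow 8 d (24/16 °C, 14 h light, 65% humidity); spray 15.625/62.5/250 g/ha in acetone:water 50:50 + 0.5% Tween 20; grow on, water twice daily; score damage 0–100 at 13 d.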

[8] = system: redroot pigweed (Amaranthus retroflexus); experiment: Test G Post-Emergence Protocol; conditions: Amaranthus retroflexus, post-emergence, 312 h; for pest or weed control at 15.625 g/ha: 15.625 g ai/ha, evaluated after 13 days (100=total damage to plant; 0=no damage to plant), read-out: Pigweed, Redroot damage rating; for pest or weed control at 62.5 g/ha: 62.5 g ai/ha, read-out: Pigweed, Redroot damage rating (100=total damage to plant; 0=no damage to plant); for pest or weed control at 62.5 g/ha / pest or weed control at 250 g/ha: evaluated after 13 days; for pest or weed control at 250 g/ha: 250 g ai/ha, read-out: damage to plant, Pigweed, Redroot (100=total damage to plant; 0=no damage to plant)
Outline: as §2

corn (Zea mays) [9] = experiment: Test G Post-Emergence Protocol; conditions: Zea mays, post-emergence, 312 h; for plant injury at 15.625 g/ha: 15.625 g ai/ha, evaluated after 13 days (100=total damage to plant; 0=no damage to plant), read-out: Corn damage rating; for plant injury at 62.5 g/ha: 62.5 g ai/ha, read-out: Corn damage rating (100=total damage to plant; 0=no damage to plant); for plant injury at 62.5 g/ha / plant injury at 250 g/ha: evaluated after 13 days; for plant injury at 250 g/ha: 250 g ai/ha, read-out: damage to plant, Corn (100=total damage to plant; 0=no damage to plant)
Outline: as §2

[10] = system: velvetleaf (Abutilon theophrasti); experiment: Test G Post-Emergence Protocol; conditions: Abutilon theophrasti, post-emergence, 312 h; for pest or weed control at 15.625 g/ha: 15.625 g ai/ha, evaluated after 13 days (100=total damage to plant; 0=no damage to plant), read-out: Velvetleaf damage rating; for pest or weed control at 62.5 g/ha: 62.5 g ai/ha, read-out: Velvetleaf damage rating (100=total damage to plant; 0=no damage to plant); for pest or weed control at 62.5 g/ha / pest or weed control at 250 g/ha: evaluated after 13 days; for pest or weed control at 250 g/ha: 250 g ai/ha, read-out: damage to plant, Velvetleaf (100=total damage to plant; 0=no damage to plant)
Outline: as §2

[11] = system: barnyardgrass (Echinochloa crus-galli); experiment: Test G Post-Emergence Protocol; conditions: Echinochloa crus-galli, post-emergence, 312 h; for pest or weed control at 15.625 g/ha: 15.625 g ai/ha, evaluated after 13 days (100=total damage to plant; 0=no damage to plant), read-out: Barnyardgrass damage rating; for pest or weed control at 62.5 g/ha: 62.5 g ai/ha, read-out: Barnyardgrass damage rating (100=total damage to plant; 0=no damage to plant); for pest or weed control at 62.5 g/ha / pest or weed control at 250 g/ha: evaluated after 13 days; for pest or weed control at 250 g/ha: 250 g ai/ha, read-out: damage to plant, Barnyardgrass (100=total damage to plant; 0=no damage to plant)
Outline: as §2

[12] = system: giant foxtail (Setaria faberi); experiment: Test G Post-Emergence Protocol; conditions: Setaria faberi, post-emergence, 312 h; for pest or weed control at 15.625 g/ha: 15.625 g ai/ha, evaluated after 13 days (100=total damage to plant; 0=no damage to plant), read-out: Foxtail, Giant damage rating; for pest or weed control at 62.5 g/ha: 62.5 g ai/ha, read-out: Foxtail, Giant damage rating (100=total damage to plant; 0=no damage to plant); for pest or weed control at 62.5 g/ha / pest or weed control at 250 g/ha: evaluated after 13 days; for pest or weed control at 250 g/ha: 250 g ai/ha, read-out: damage to plant, Foxtail, Giant (100=total damage to plant; 0=no damage to plant)
Outline: as §2

[13] = read-out: Pigweed, Redroot damage rating (100=total damage to plant; 0=no damage to plant)

SMILES | pest or weed control at 15.625 g/ha [1] | pest or weed control at 62.5 g/ha [1] | pest or weed control at 250 g/ha [1] | pest or weed control at 62.5 g/ha [2] | pest or weed control at 250 g/ha [2, 13] | plant injury at 15.625 g/ha (corn (Zea mays) [3]) | plant injury at 62.5 g/ha (corn (Zea mays) [3]) | plant injury at 250 g/ha (corn (Zea mays) [3]) | pest or weed control at 15.625 g/ha [4] | pest or weed control at 62.5 g/ha [4] | pest or weed control at 250 g/ha [4] | pest or weed control at 15.625 g/ha [5] | pest or weed control at 62.5 g/ha [5] | pest or weed control at 250 g/ha [5] | pest or weed control at 15.625 g/ha [6] | pest or weed control at 62.5 g/ha [6] | pest or weed control at 250 g/ha [6] | pest or weed control at 15.625 g/ha [7] | pest or weed control at 62.5 g/ha [7] | pest or weed control at 250 g/ha [7] | further results
CN1C[C@@H](c2cc(Cl)nc(Cl)c2)[C@H](C(=O)Nc2cccc(F)c2F)C1=O (racemic) [Compound 1494] | 0% | 0% | 70% | 0% | 30% | 0% | 20% | 60% | 0% | 0% | 0% | 80% | 80% | 90% | 70% | 80% | 80% | 10% | 40% | 50% | pest or weed control at 15.625 g/ha ([2]; 15.625 g ai/ha, read-out: Pigweed, Redroot damage rating (100=total damage to plant; 0=no damage to plant)): 0%; pest or weed control at 15.625 g/ha [8]: 0%; pest or weed control at 62.5 g/ha [8]: 0%; pest or weed control at 250 g/ha [8]: 0%; plant injury at 15.625 g/ha (corn (Zea mays) [9]): 10%; plant injury at 62.5 g/ha (corn (Zea mays) [9]): 30%; plant injury at 250 g/ha (corn (Zea mays) [9]): 80%; pest or weed control at 15.625 g/ha [10]: 0%; pest or weed control at 62.5 g/ha [10]: 0%; pest or weed control at 250 g/ha [10]: 30%; pest or weed control at 15.625 g/ha [11]: 30%; pest or weed control at 62.5 g/ha [11]: 60%; pest or weed control at 250 g/ha [11]: 50%; pest or weed control at 15.625 g/ha [12]: 60%; pest or weed control at 62.5 g/ha [12]: 60%; pest or weed control at 250 g/ha [12]: 60%
COc1ccc([C@H]2CN(C)C(=O)[C@@H]2C(=O)Nc2ccccc2F)c(C)c1 (racemic) [Compound 1455] | 0% | 0% | 20% | 0% | 0% | 0% | 0% | 10% | 0% | 30% | 0% | 30% | 70% | 90% | 30% | 70% | 90% | 0% | 0% | 20% | pest or weed control at 15.625 g/ha [8]: 0%; pest or weed control at 62.5 g/ha [8]: 0%; pest or weed control at 250 g/ha [8]: 40%; plant injury at 15.625 g/ha (corn (Zea mays) [9]): 10%; plant injury at 62.5 g/ha (corn (Zea mays) [9]): 10%; plant injury at 250 g/ha (corn (Zea mays) [9]): 20%; pest or weed control at 15.625 g/ha [10]: 0%; pest or weed control at 62.5 g/ha [10]: 0%; pest or weed control at 250 g/ha [10]: 10%; pest or weed control at 15.625 g/ha [11]: 0%; pest or weed control at 62.5 g/ha [11]: 0%; pest or weed control at 250 g/ha [11]: 20%; pest or weed control at 15.625 g/ha [12]: 10%; pest or weed control at 62.5 g/ha [12]: 10%; pest or weed control at 250 g/ha [12]: 50%
